{"source": "patent US20030109418A1", "about": "“Methods for identifying compounds for inhibition of neoplastic lesions, and pharmaceutical compositions containing such compounds” (priority 1999, published 2003)", "key": {"[1]": {"experiment": "28-day study in rats", "assay_type": "in vivo, rat"}, "[2]": {"experiment": "Single, escalating dose human safety study", "assay_type": "in vivo", "conditions": "single escalating oral doses"}, "[3]": {"system": "aberrant crypt foci (ACF) in colon", "experiment": "Azoxymethane-induced aberrant crypt foci model", "assay_type": "in vivo, rat", "conditions": "for Mean ACF/colon (+ SE): free base, 5 weeks", "protocol": "The growth inhibition IC50 value obtained for Compound I was 0.7 μM in the SW-480 cell line. […] This established rodent model of azoxymethane (“AOM”)-induced carcinogenesis was used to assess the effects of Compound I (free base and salt) on colon cancer development in vivo. ACF are precursors to colonic tumors, and ACF inhibition is predictive of chemo-preventive efficacy.\nIn the rats in this experiment, ACF initiation was achieved by two consecutive weekly injections of the carcinogen. Compound I was administered one week prior to ACF initiation and for the duration of the experiment. ACFs were scored after 5 weeks of treatment. Compound I was administered orally to male Fisher 344 rats in the rat chow. Daily food consumption (mg/kg body weight) varied over the course of the study, and therefore Compound I dose was expressed a grams per kg of diet to provide a basis of comparison between doses. […] The experimental groups gained less weight than the controls, which was indicative of bioavailability. However, the weight differences were less than 10% and not considered to affect ACF formation.\nThe free base of Compound I inhibited ACF formation as measured by a reduction of crypts per colon. With the exception of the low dose group (only 0.5 g/kg diet), the differences between treatment and control groups were substantial, and statistically significant in the case of the 1.0 and 2.0 g/kg diet group."}, "[4]": {"system": "HCT-15", "experiment": "Growth inhibition, neutral red assay, HCT-15", "assay_type": "cell-based, human", "conditions": "free base, five days", "protocol": "(§1) Compound I's activity is not confined to activity against colon cancer cell lines or animal models of colon cancer. It has a broad range of anti-neoplastic effects in various neoplastic cell lines. Various types of human cancer cell lines were propagated under sterile conditions in RPMI 1640 medium with 10% fetal bovine serum, 2 mM L-glutamine and sodium bicarbonate. To determine growth inhibitory effects of Compound I, cells were seeded in 96-well plates at a density of 1000 cells per well. Twenty-four hours after plating, the cells were dosed with various concentrations of the free base of Compound I solubilized in DMSO (final concentration 0.1%). The effect of the drug on tumor cell growth was determined using the neutral red cytotoxicity assay following five days of continuous treatment. Neutral red is a dye that is selectively taken up by viable cells by an ATP-dependent transport mechanism."}, "[5]": {"system": "SW-620", "experiment": "Growth inhibition, neutral red assay, SW-620", "assay_type": "cell-based, human", "conditions": "free base, five days", "protocol": "as §1"}, "[6]": {"system": "NCI-H23", "experiment": "Growth inhibition, neutral red assay, NCI-H23", "assay_type": "cell-based, human", "conditions": "free base, five days", "protocol": "as §1"}, "[7]": {"system": "NCI-H322M", "experiment": "Growth inhibition, neutral red assay, NCI-H322M", "assay_type": "cell-based, human", "conditions": "free base, five days", "protocol": "as §1"}, "[8]": {"system": "UISO-BCA-1", "experiment": "Growth inhibition, neutral red assay, UISO-BCA-1", "assay_type": "cell-based, human", "conditions": "free base, five days", "protocol": "as §1"}, "[9]": {"system": "CCRF-CEM", "experiment": "Growth inhibition, neutral red assay, CCRF-CEM", "assay_type": "cell-based", "conditions": "Homo sapiens, HCl salt", "protocol": "as §1"}, "[10]": {"conditions": "rat, in vivo"}, "[11]": {"system": "PDE4 purified from human colon HT-29 cultured tumor cells", "experiment": "PDE4 inhibition assay", "assay_type": "biochemical", "conditions": "HT-29 cell enzyme"}, "[12]": {"system": "HT-29 colon adenocarcinoma cells", "experiment": "Apoptosis by DNA fragmentation assay in HT-29", "assay_type": "cell-based, human", "conditions": "qualitative activity profile"}, "[13]": {"system": "HCT116, Colon", "experiment": "Growth inhibition, SRB assay, HCT116", "assay_type": "cell-based", "conditions": "Homo sapiens, HCT-116", "description": "A compound's ability to inhibit tumor cell growth can be measured using the HT-29 human colon carcinoma cell line obtained from ATCC. HT-29 cells have previously been characterized as a relevant colon tumor cell culture model (Fogh, J., and Trempe, G. In: Human Tumor Cells in Vitro, J. Fogh (eds.), Plenum Press, New York, pp. 115-159, 1975). HT-29 cells are maintained in RPMI media supplemented with 5% fetal bovine calf serum (Gemini Bioproducts, Inc., Carlsbad, Calif.) and 2 mm glutamine, and 1% antibiotic-antimycotic in a humidified atmosphere of 95% air and 5% CO2 at 37° C. Briefly, HT-29 cells are plated at a density of 500 cells/well in 96 well microtiter plates and incubated for 24 hours at 37° C. prior to the addition of compound. […] After six days in culture, the cells are fixed by the addition of cold trichloroacetic acid to a final concentration of 10% and protein levels are measured using the sulforhodamine B (SRB) colorimetric protein stain assay as previously described by Skehan, P., Storeng, R., Scudiero, D., Monks, A., McMahon, J., Vistica, D., Warren, J. T., Bokesch, H., Kenney, S., and Boyd, M. R., “New Colorimetric Assay For Anticancer-Drug Screening,” J. Natl. Cancer Inst. […]\nTo show the effectiveness of this screening method on various forms of neoplasia, compounds were tested on numerous cell lines. […] The IC50 values were determined by the SRB assay. […]"}, "[14]": {"experiment": "Safety evaluation in exisulind clinical trials", "assay_type": "in vivo", "protocol": "In these exisulind trials and several others involving the drug in other indications, safety was evaluated by monitoring adverse events (AEs), clinical laboratory tests (hematology, serum chemistry, and urinalysis), vital signs (blood pressure, pulse rate, respiratory rate, temperature, and weight), physical examination, and upper endoscopy."}, "[15]": {"biological_target": "T1, cGMP binding sites of the GST-cGB-PDE5 protein (Homo sapiens, UniProt O76074)", "T1 construct": "made in house; host or cells: E. coli BL21 (DE3)", "T1 sequence (O76074 46-539 limits assumed)": "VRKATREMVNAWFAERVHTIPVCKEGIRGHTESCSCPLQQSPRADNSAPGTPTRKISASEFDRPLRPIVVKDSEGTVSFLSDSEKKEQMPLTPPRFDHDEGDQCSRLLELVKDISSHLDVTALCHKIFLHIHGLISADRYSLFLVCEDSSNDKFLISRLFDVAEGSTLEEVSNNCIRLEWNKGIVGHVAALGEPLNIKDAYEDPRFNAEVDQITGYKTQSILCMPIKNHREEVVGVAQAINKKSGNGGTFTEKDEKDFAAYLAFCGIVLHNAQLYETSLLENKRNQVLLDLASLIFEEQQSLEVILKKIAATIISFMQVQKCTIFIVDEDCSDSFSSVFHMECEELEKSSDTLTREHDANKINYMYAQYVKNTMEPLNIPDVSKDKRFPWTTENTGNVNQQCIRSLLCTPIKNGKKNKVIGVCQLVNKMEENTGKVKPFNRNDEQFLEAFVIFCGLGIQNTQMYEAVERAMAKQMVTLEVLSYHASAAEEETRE", "experiment": "cGMP binding assay with GST-cGB-PDE5 fusion protein", "conditions": "3H-cGMP 2 μM"}}, "note": "Counter-ions that a name gives are not always drawn."}
{"molecule": "CC1=C(CC(=O)NCc2ccccc2)c2cc(F)ccc2/C1=C\\c1ccncc1", "note": "[Compound I, (Z)-5-fluoro-2-methyl-(4-pyridylidene)-3-(N-benzyl)indenylacetamide hydrochloride]", "values": [{"measurement": "organ weight data, 28-day study", "setting": "[1]; rats, 2000 mg/kg/day", "result": "statistically significant increase in liver weights"}, {"measurement": "clinical observations, 28-day study", "setting": "[1]; rats, 50, 500 and 2000 mg/kg/day", "result": "no abnormal clinical observations"}, {"measurement": "side effects in humans", "setting": "[2]", "result": "no significant side effects at any dose"}, {"measurement": "ACF % Control", "setting": "[3]; 0.5 g/kg diet", "result": 100, "unit": "%"}, {"measurement": "Mean ACF/colon (+ SE)", "setting": "[3]; 0.5 g/kg diet", "result": "149 ± 14"}, {"measurement": "ACF % Control", "setting": "[3]; 1 g/kg diet", "result": 75, "unit": "%"}, {"measurement": "Mean ACF/colon (+ SE)", "setting": "[3]; 1 g/kg diet", "result": "111 ± 9"}, {"measurement": "ACF % Control", "setting": "[3]; 1.5 g/kg diet", "result": 89, "unit": "%"}, {"measurement": "Mean ACF/colon (+ SE)", "setting": "[3]; 1.5 g/kg diet", "result": "132 ± 4"}, {"measurement": "ACF % Control", "setting": "[3]; 2.0 g/kg diet", "result": 72, "unit": "%"}, {"measurement": "Mean ACF/colon (+ SE)", "setting": "[3]; 2.0 g/kg diet", "result": "107 ± 15"}, {"measurement": "body weight differences versus controls", "setting": "[3]; male Fisher 344 rats, drug in chow", "result": "less than 10%"}, {"measurement": "GI50", "setting": "[4]; Homo sapiens, HCT-15, 120 h", "result": 1.7, "unit": "µM"}, {"measurement": "GI90 μM, HCT-15", "setting": "[4]", "result": 3.0, "unit": "µM"}, {"measurement": "GI50", "setting": "[5]; Homo sapiens, SW-620, 120 h", "result": 1.7, "unit": "µM"}, {"measurement": "GI90 μM, SW-620", "setting": "[5]", "result": 2.5, "unit": "µM"}, {"measurement": "GI50", "setting": "[6]; Homo sapiens, NCI-H23, 120 h", "result": 1.7, "unit": "µM"}, {"measurement": "GI90 μM, NCI-H23", "setting": "[6]", "result": 2.5, "unit": "µM"}, {"measurement": "GI50", "setting": "[7]; Homo sapiens, NCI-H322M, 120 h", "result": 2.1, "unit": "µM"}, {"measurement": "GI90 μM, NCI-H322M", "setting": "[7]", "result": 13.2, "unit": "µM"}, {"measurement": "GI50", "setting": "[8]; Homo sapiens, 120 h", "result": 1.5, "unit": "µM"}, {"measurement": "GI90 μM, UISO-BCA-1", "setting": "[8]", "result": 4.7, "unit": "µM"}, {"measurement": "GI50", "setting": "[9]", "result": 1.4, "unit": "µM"}, {"measurement": "signs of toxicity, single oral doses", "setting": "[10]", "result": "no observable signs of toxicity"}, {"measurement": "findings after single intraperitoneal dose", "setting": "[10]; ip, 1000 mg/kg", "result": "reduced body weight gain, with mesenteric adhesions seen in some animals"}, {"measurement": "body weight gain, single oral dose", "setting": "[10]; po, 4000 mg/kg", "result": "body weight gains were slightly reduced"}]}
{"molecule": "CC1=C(CC(=O)O)c2cc(F)ccc2/C1=C\\c1ccc(S(C)(=O)=O)cc1", "note": "[Exisulind, 5-fluoro-2-methyl-1-(p-methylsulfonylbenzylidene)-3-indenylacetic acid]", "values": [{"measurement": "IC50", "setting": "[11]", "result": 181, "unit": "µM"}, {"measurement": "Apoptosis", "setting": "[12]", "result": "++"}, {"measurement": "IC50", "setting": "[13]", "result": 90, "unit": "µM"}, {"measurement": "apoptosis rates in paired biopsies of polyp and normal colonic tissues", "setting": "[14]; APC patients", "result": "increased apoptosis rates in polyp, but not normal colonic tissues"}, {"measurement": "toxicities in clinical trials", "setting": "[14]; human, in vivo", "result": "did not demonstrate any blood dyscrasia, dose-limiting vomiting, or neurological or renal toxicities"}, {"measurement": "maximum tolerated dose (MTD)", "setting": "[14]; patients with intact colons", "result": 400, "unit": "mg"}, {"measurement": "maximum tolerated dose (MTD)", "setting": "[14]; patients with subtotal colectomy", "result": 600, "unit": "mg"}, {"measurement": "maximum tolerated dose (MTD)", "setting": "[14]; pediatric patients", "result": 350, "unit": "mg"}, {"measurement": "competition with cGMP in binding of GST-cGB-PDE5", "setting": "[15]", "result": "do not bind to the cGMP binding sites of PDE5"}]}
